Data published in patent publication US4758586A, “Indolyl compounds and hyposensitivity use thereof” (USV Pharmaceutical Corp., priority 1986, dated 1988).

Legend:
[1] = test system: leukotriene C4 -induced contraction of guinea pig peripheral strips; assay: SRS-A antagonists (SALTI): leukotriene C4-induced contraction of guinea pig peripheral lung strips; settings: Cavia porcellus; 0.2 μM leukotriene C4-induced contraction; read-out: SALTI, I50 μM
Method: Protocol for SRS-A (Slow-reacting Substance of Anaphylaxis Antagonists (SALTI)
Peripheral strips of guinea pig lungs are prepared and hung in tissue baths (Metro #ME-5505, 10 ml) according to the published procedure (Pro. Nat'l. Acad. Sci., U.S.A. Volume 77, pp. 4354-4358, 1980). The strips are thoroughly rinsed in Assay Buffer and then connected with surgical silk thread to the support rods from the tissue baths. The rods are adjusted in the baths and the strips connected to the pressure transducers (Grass FT 103 or Gould UC-3). The tissue baths are aerated with 95% oxygen 5% carbon dioxide and maintained at 37° C. The Assay Buffer has been made as follows: For each liter of buffer the following are added to approximately 800 ml of water distilled in glass--6.87 g. NaCl, 0.4 g. KCl, […]. NaHCO3, 0.14 g. NaH2 PO4.H2 O, 0.21 g. MgSO4.7H2 O, and 2.0 g. D-glucose. Then a solution of 0.368 g. CaCl2.2H2 O in 100 ml glass-distilled water is slowly added to the buffer. Sufficient water is added to adjust the volume to one liter, and the solution is aerated with 95% oxygen--5% carbon dioxide. Usually 10 liters of buffer are used for an experiment with 4 tissues.
After the tissues have been repeatedly washed and allowed to equilibrate in the tissue bath, they are challenged with 1 μM histamine. After maximum contractions have been obtained, the tissues are washed, and allowed to relax back to baseline tension. This histamine challenge procedure is repeated at least 1 to 2 more times to obtain a repeatable control response. The average response to 1 μM histamine for each tissue is used to normalize all other challenges.
Responses of each tissue to a predetermined concentration of leukotriene are then obtained. Usually test compounds are examined initially at 30 μM on resting tension of the tissues without any added agonist or antagonist to determine if the compound has any possible intrinsic activity. The tissues are washed, and the test compound is added again. Leukotriene is added after the desired pre-incubation time. The intrinsic activity of the compounds, and their effect on leukotriene-induced contractions are then recorded.
The concentration required for 50% inhibition of 0.2 μM leukotriene C4 -induced contraction of guinea pig peripheral strips for representative compounds of the present invention is shown in Table 3.

Phospholipase C (PLC) = assay: In vitro assay for inhibitors of Phospholipase C (PLC) from rat platelets; type: biochemical; settings: read-out: PLC, I50
Description: A. Protocol For In Vitro Assay For Inhibitors Of Phospholipase C (PLC)
The PLC employed in this screen is obtained by aggregation of purified rat platelets in the presence of CaCl2 and ADP. In the enzyme assay phosphatidylinositol having ^3 H -labeled arachidonate residues at R2 is employed as substrate. PLC acts by cleaving the phosphate ester bond yielding diglyceride as follows: [drawing 18]
Following completion of the reaction, the assay medium is acidified and extracted with hexane which takes up unreacted substrate and diglyceride. The hexane extract is passed over a short silica gel column which retains 99% of the phosphatidylinositol. The ^3 H-labeled diglyceride is not retained […]. The diglyceride is conveniently quantitated by liquid scintillation spectrometry.
The compounds were tested at 300 u in a buffer containing 0.06 mM unlabeled phosphatidylcholine (PC), 20-30,000 cpm of (CPC), 150 mM NaCl, 5 mM CaCl2 and 50 mM tris(hydroxymethyl)methylaminopropanesulfonic acid buffer, adjusted to pH 9.0 with 1N NaOH. The temperature of the buffer was maintained at a temperature of 37° C. The reaction was initiated by addition of the enzyme and it was terminated 10 minutes later by addition of 1 ml of 1N HCl.
Following acidification, the samples were extracted with 2 ml of isopropyl alcohol and 2 ml of hexane, vortexed and allowed to stand until the phases separate. […] and some unreacted substrate were taken up in the isopropanol-saturated hexane. The hexane phase of the extraction mixture was transferred to a short silica gel column which retains unreacted phosphatidylinositol, but not the 3H-diglyceride. The column effluent was collected directly in scintillation vials. The columns were washed once with additional 2 ml of hexane. The radiolabelled diglycerides were quantitated by liquid scintillation.

Phospholipase A2 (PLA2) = target: T1, Phospholipase A2 (PLA2) (Rattus norvegicus, UniProt P14423); assay: In vitro assay for inhibitors of Phospholipase A2 (PLA2) from rat platelets; type: biochemical; settings: pH 7.2, 37° C.; read-out: PLA2, I50
T1 construct: obtained by aggregation of purified rat platelets; from tissue; host or cells: rat platelets (enzyme obtained by aggregation)
T1 sequence (P14423 22-146): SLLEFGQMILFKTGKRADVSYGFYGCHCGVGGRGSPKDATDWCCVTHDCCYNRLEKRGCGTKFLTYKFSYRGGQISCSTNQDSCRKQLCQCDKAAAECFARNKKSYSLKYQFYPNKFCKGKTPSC
Description: B. In Vitro Assay For Inhibitors of Phospholipase A2 Assayed at pH 7.0 (PLA2)
The PLA2 employed in this screen is obtained by aggregation of purified rat platelets. In the enzyme assay phosphatidylcholine having ^14 C-labeled palmitate residues at R1 and R2 is employed as substrate. PLA2 acts by cleaving the R2 fatty acid ester bond yielding free fatty acid and lysophosphatidyl choline as follows: [drawing 19]
Following completion of the reaction, the assay medium is acidified and extracted with hexane, which takes up unreacted substrate and free fatty acid product. The hexane extract is passed over a short silica column which retains 99% of the phosphatidyl choline. The ^14 C-labeled palmitic acid is not retained (90% recovery in eluate) and is collected directly in scintillation counting vials. The released palmitic acid is conveniently quantitated by liquid scintillation spectrometry.
The compounds were tested at 100 uM in a buffer containing 0.3 mM unlabeled phosphatidylcholine (PC), 20-30,000 cpm of ^14 C(CPC), […], 1 mM CaCl2 and 50 mM tris-HCl adjusted to pH 7.2 with 1N NaOH. […] The temperature of the buffer was maintained at a temperature of 37° C. The reaction was initiated by addition of the enzyme and it was terminated 30 minutes later by the addition of […] of 1N HCl.
Following acidification, the samples were extracted with 2 ml of 2-propanol and 2 ml of hexane, vortexed and allowed to stand until the phases separated. Free fatty acids (FFA) and some unreacted substrate were taken up in the isopropanol-saturated hexane. The hexane phase of the extraction mixture was transferred to a short silica gel column which retained […] but not the FFA. The column effluent was collected directly in scintillation vials. The columns were washed once with an additional 2 ml of hexane. The radio labeled FFA were quantitated by liquid scintillation spectrometry.

**Q.** How did the IC50 [1] turn out when `Cc1c(C=CC=CC(=O)O)c2ccccc2n1Cc1ccccc1` [Example 12, 5-(1-Benzyl-2-methylindol-3-yl)-2,4-Pentadienoic Acid] was run?
**A.** 15 µM

**Q.** And the IC50 (Phospholipase C (PLC))?
**A.** 40 µM

**Q.** What about the IC50 (Phospholipase A2 (PLA2)) of the same compound?
**A.** 37 µM
